Measurements taken from patent US20140315876A1, “BETA-LACTAMASE INHIBITORS” (priority 2013, published 2014).
Structures can show the parent of a compound that is named as a salt.

Experiments:
[1] = system: bacterial strains that express the class D cephalosporinase OXA-15; experiment: Synergy MIC / standard BLI potentiation MIC assay, strains expressing OXA-15; type: cell-based, E. coli; conditions: in the presence of a β-lactam; comparator Avibactam (comparator compound CCC)
How it was run: (§1)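 Broth microdilution in CAMHB per CLSI, ~10^5 CFU/mL, 18-20 h at 37° C; MIC is lowest concentration with no visible turbidity. Potentiation: β-lactam 128-0.13 μg/mL with BLI fixed at 4 μg/mL. Synergy: BLI serially diluted with β-lactam fixed. Engineered E. coli kept on 25 μg/mL tetracycline.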

[2] = system: bacterial strains that express KPC β-lactamases; experiment: Synergy MIC / standard BLI potentiation MIC assay, strains expressing KPC β-lactamases; type: cell-based; conditions: more active for at least one KPC strain and/or better spectrum of activity than Avibactam; in the presence of a β-lactam
How it was run: as §1

SMILES | activity against bacterial strains that express the class D cephalosporinase OXA-15, compared with Avibactam [1] | activity and/or spectrum of activity against bacterial strains that express KPC β-lactamases, compared with Avibactam [2]
NCc1nnc([C@@H]2CC[C@@H]3CN2C(=O)N3OS(=O)(=O)O)o1 [Compound 702, (2S,5R)-2-(5-(aminomethyl)-1,3,4-oxadiazol-2-yl)-7-oxo-1,6-diazabicyclo[3.2.1]octan-6-yl hydrogen sulfate] | more active than Avibactam | more active than Avibactam
N=C1NCC(c2nnc([C@@H]3CC[C@@H]4CN3C(=O)N4OS(=O)(=O)O)o2)N1 (stereo partly drawn) [Compound 767, (2S,5R)-2-(5-(2-iminoimidazolidin-4-yl)-1,3,4-oxadiazol-2-yl)-7-oxo-1,6-diazabicyclo[3.2.1]octan-6-yl hydrogen sulfate] | more active than Avibactam | more active than Avibactam
N=C(N)NCC(O)Cc1nnc([C@@H]2CC[C@@H]3CN2C(=O)N3OS(=O)(=O)O)o1 (stereo partly drawn) [Compound 730, (2S,5R)-2-(5-(3-guanidino-2-hydroxypropyl)-1,3,4-oxadiazol-2-yl)-7-oxo-1,6-diazabicyclo[3.2.1]octan-6-yl hydrogen sulfate] | more active than Avibactam | more active than Avibactam
NCCc1nnc([C@@H]2CC[C@@H]3CN2C(=O)N3OS(=O)(=O)O)o1 [Compound 703, (2S,5R)-2-(5-(2-aminoethyl)-1,3,4-oxadiazol-2-yl)-7-oxo-1,6-diazabicyclo[3.2.1]octan-6-yl hydrogen sulfate] | more active than Avibactam | more active than Avibactam
N=C(N)NCc1nnc([C@@H]2CC[C@@H]3CN2C(=O)N3OS(=O)(=O)O)s1 [Compound 721, (2S,5R)-2-(5-(guanidinomethyl)-1,3,4-thiadiazol-2-yl)-7-oxo-1,6-diazabicyclo[3.2.1]octan-6-yl hydrogen sulfate] | more active than Avibactam | more active than Avibactam
C[n+]1ccc(-c2nnc([C@@H]3CC[C@@H]4CN3C(=O)N4OS(=O)(=O)[O-])o2)cc1 [Compound 782, (2S,5R)-2-(5-(1-methylpyridin-1-ium-4-yl)-1,3,4-oxadiazol-2-yl)-7-oxo-1,6-diazabicyclo[3.2.1]octan-6-yl sulfate] | more active than Avibactam | more active than Avibactam
N=C(N)NC[C@H](O)c1nnc([C@@H]2CC[C@@H]3CN2C(=O)N3OS(=O)(=O)O)o1 [Compound 732, (2S,5R)-2-(5-((S)-2-guanidino-1-hydroxyethyl)-1,3,4-oxadiazol-2-yl)-7-oxo-1,6-diazabicyclo[3.2.1]octan-6-yl hydrogen sulfate] | more active than Avibactam | more active than Avibactam
